# Assay results as given in the Kinase Knowledgebase extract (Sharma et al. 2016).
# Molecular target: EGFR (human) (UniProt P00533)
# Sequence (P00533 whole entry, looked up): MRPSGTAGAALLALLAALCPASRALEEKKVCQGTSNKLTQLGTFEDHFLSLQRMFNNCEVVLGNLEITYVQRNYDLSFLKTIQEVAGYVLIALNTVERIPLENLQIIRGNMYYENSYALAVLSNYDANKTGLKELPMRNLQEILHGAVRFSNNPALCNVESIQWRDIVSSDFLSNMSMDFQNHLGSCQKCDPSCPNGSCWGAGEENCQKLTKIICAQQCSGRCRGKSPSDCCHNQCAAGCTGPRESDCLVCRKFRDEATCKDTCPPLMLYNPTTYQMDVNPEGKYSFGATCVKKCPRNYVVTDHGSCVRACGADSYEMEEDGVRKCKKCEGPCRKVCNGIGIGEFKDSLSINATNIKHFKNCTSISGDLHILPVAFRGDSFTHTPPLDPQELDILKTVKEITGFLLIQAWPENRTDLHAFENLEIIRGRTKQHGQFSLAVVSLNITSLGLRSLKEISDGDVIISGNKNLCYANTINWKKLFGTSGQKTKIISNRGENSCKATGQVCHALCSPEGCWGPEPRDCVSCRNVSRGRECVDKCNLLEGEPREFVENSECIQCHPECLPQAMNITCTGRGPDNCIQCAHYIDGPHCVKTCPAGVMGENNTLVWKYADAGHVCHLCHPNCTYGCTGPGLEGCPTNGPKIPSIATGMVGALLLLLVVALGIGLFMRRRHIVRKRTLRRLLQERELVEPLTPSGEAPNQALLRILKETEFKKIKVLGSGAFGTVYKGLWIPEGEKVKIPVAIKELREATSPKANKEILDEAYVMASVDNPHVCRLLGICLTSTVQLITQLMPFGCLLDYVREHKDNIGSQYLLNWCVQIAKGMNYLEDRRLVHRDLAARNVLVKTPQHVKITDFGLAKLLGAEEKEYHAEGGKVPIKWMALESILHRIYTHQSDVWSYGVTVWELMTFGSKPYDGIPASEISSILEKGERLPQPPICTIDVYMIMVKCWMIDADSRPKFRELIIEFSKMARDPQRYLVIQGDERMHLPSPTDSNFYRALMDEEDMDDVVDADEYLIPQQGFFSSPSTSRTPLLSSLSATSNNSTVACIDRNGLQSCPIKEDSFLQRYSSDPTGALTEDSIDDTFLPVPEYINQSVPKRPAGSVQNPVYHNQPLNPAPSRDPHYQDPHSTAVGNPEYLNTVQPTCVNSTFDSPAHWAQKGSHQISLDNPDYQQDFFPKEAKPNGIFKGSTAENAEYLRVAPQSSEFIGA
row,Structure (SMILES),IC50
1,c1nc(Nc2ccc3[nH]ccc3c2)c2sc(-c3ccc(NCCN4CCCC4)cc3)cc2n1,1 nM
2,c1ccc(-c2cc3nccc(Nc4ccc5[nH]ccc5c4)c3s2)cc1,68 nM
3,CC(=O)NCCNCc1ccc(-c2cc3nccc(Nc4ccc5[nH]ccc5c4)c3s2)cc1,5 nM
4,c1cn(CCCc2ccc(-c3cc4ncnc(Nc5ccc6[nH]ccc6c5)c4s3)cc2)cn1,1 nM
5,NC(=O)C1CCN(Cc2ccc(-c3cc4ncnc(Nc5ccc6[nH]ccc6c5)c4s3)cc2)CC1,1 nM
6,NC(=O)C1CCN(Cc2ccc(-c3cc4nccc(Nc5ccc6[nH]ccc6c5)c4s3)cc2)CC1,7 nM
7,c1csc(-c2cc3nccc(Nc4ccc5[nH]ccc5c4)c3s2)c1,39 nM
8,CC(C)(CO)NCc1ccc(-c2cc3nccc(Nc4ccc5[nH]ccc5c4)c3s2)cc1,8 nM
9,c1cn(CCCc2ccc(-c3cc4nccc(Nc5ccc6[nH]ccc6c5)c4s3)cc2)cn1,5 nM
10,CC(=O)NCCNCc1ccc(-c2cc3ncnc(Nc4ccc5[nH]ccc5c4)c3s2)cc1,2 nM
